Laboratory results reported in US20220370416A1, “COMPOUNDS AND METHODS FOR TARGETED DEGRADATION OF KRAS” (Arvinas Operations, Inc., priority 2020, published 2022).

Assays:
[1] = target: T1, HiBit-KRAS^G12C (Homo sapiens, UniProt P01116, G12C); assay: HiBit degradation assay in MiaPaCa-2 HiBit-KRas^G12C cells; assay type: cell-based; conditions: 24 hours; for Dmax: maximum degradation; for DC50: read-out: KRas^G12C-HiBiT (MiaPaCa; 0.5% DMSO) IC50
Protocol: Reagents. SW1573 (CRL-2170) and MiaPaCa-2 (CRL-1420) cells were purchased from ATCC. Both cell lines are […] for the G12C mutation in KRAS. SW1573 cells were cultured in DMEM+F12+Glutamax (+Sodium Bicarbonate, +sodium pyruvate, Thermofisher scientific, #10565) supplemented with 10% FBS (Thermofisher scientific, #2060357) and 1% Antibiotic-Antimycotic (Thermofisher scientific, #15240096). MiaPaCa-2 cells were cultured in DMEM+Glutamax media (Thermofisher scientific, #10566) supplemented with 10% FBS (Thermofisher scientific, #2060357) and 1% Antibiotic-Antimycotic (Thermofisher scientific, #15240096). For degradation assays, 384 well plates were purchased from Corning (Corning® CellBIND® 384-well Flat Clear Bottom Black Polystyrene Microplates, Low Flange, #3770). Gambogic acid was purchased from Selleckchem (#S2448). Alamar blue was purchased from Thermofisher scientific (A50101) and used according to manufacturer instructions. The Nano-Glo® HiBit Lytic Detection System and Nano-Glo® HiBit Blotting System were purchased from Promega (#N3050 and #N2410) and used according to manufacturer instructions.
To create the MiaPaCa-2 HiBit-KRAS^G12C cell line, CRISPR-Cas9 was used to insert the HiBit tag onto the N-terminus of one or more of the four endogenous KRAS^G12C alleles. After knock-in of the tag, individual clones were isolated by single cell dilution and screened for HiBit insertion by PCR. Clones containing the HiBit tag were sequenced and one was identified that contained the desired HiBit-KRAS^G12C sequence at one allele while the remaining three KRAS^G12C alleles were unaffected. This line was used for all subsequent studies.
Either SW1573 HiBit-KRas^G12C or MiaPaCa-2 HiBit-KRas^G12C cells were plated at 9000 cells/well in a 384 well plate (Corning #3770). Exemplary heterobifunctional molecules and positive controls were diluted in the appropriate cell media and applied to the plated cells resulting in a final concentration titration of 10 μM to 20 nM in either 0.1% or 0.5% dimethyl sulfoxide (DMSO). Gambogic acid was used as a positive control for cytotoxicity and titrated from 10 μM to 78 nM. All assays were performed in triplicate. Cells were treated with compounds for 24 hours at 37° C. in an incubator containing 5% CO2. Following treatment, alamar blue was used to determine if any compounds led to a loss in cell viability after 24 hours. The 10× alamar blue reagent was added to a final concentration of 1× as recommended by the manufacturer and cells were returned to the incubator for 4 hours. Plates were then allowed to equilibrate to room temperature and fluorescence was measured using a Perkin-Elmer EnVision. After completion of the fluorescence read, the liquid from each well was removed and the cells were washed with PBS. The Nano-Glo® HiBiT detection reagent was prepared according to the manufacturer's instructions and added to each well after the PBS wash was removed. Following incubation at room temperature for 45 minutes, the luminescence was read using the ultra-sensitive luminescence aperture on the Envision instrument.
Fluorescence values from the alamar blue treatment were normalized to the DMSO only control for each compound titration. We hypothesized that compounds that led to a ≥50% loss in cell viability of the KRAS-independent SW1573 HiBit-KRas^G12C cells were likely generally cytotoxic and loss of HiBit-KRAS^G12C signal from these compounds may be due to lower cell number and not specific KRAS^G12C degradation. These points were therefore excluded from the data analysis for degradation. […]

[2] = target: T1, HiBit-KRAS^G12C; assay: HiBit degradation assay in SW1573 HiBit-KRas^G12C cells; assay type: cell-based; parameters: expressed in transfected cells; host or cells: SW1573 (clone E6), modified pcDNA3.1 vector, TK promoter; conditions: 24 hours
Summary of the method: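 HiBit-KRAS G12C degradation was measured after a 24 h compound exposure (titrated 10 μM–20 nM) in engineered SW1573 cells. Lytic HiBit luminescence, expressed relative to DMSO controls, yielded DC50 and Dmax from 4-parameter fits. Concentrations causing ≥50% loss in alamar blue viability were omitted as cytotoxic.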

[3] = MIA PaCa-2, MiaPaCa-2 HiBit-KRas^G12C cells, 0.5% DMSO, read-out: KRas^G12C-HiBiT (MiaPaCa; 0.5% DMSO) DMax
[4] = MiaPaCa-2 HiBit-KRas^G12C cells, 0.5% DMSO
[5] = SW1573, SW1573 HiBit-KRas^G12C, 0.5% DMSO, read-out: KRas^G12C-HiBiT (SW1573; 0.5% DMSO) Dmax**
[6] = read-out: KRas^G12C-HiBiT (SW1573; 0.5% DMSO) IC50***, SW1573 HiBit-KRas^G12C, 0.5% DMSO
[7] = MIA PaCa-2, read-out: KRas^G12C-HiBiT (MiaPaCa; 0.1% DMSO) DMax, MiaPaCa-2 HiBit-KRas^G12C cells, 0.1% DMSO
[8] = MIA PaCa-2, read-out: KRas^G12C-HiBiT (MiaPaCa; 0.5% DMSO) DMax, MiaPaCa-2 HiBit-KRas^G12C cells, 0.5% DMSO
[9] = SW1573, read-out: KRas^G12C-HiBiT (SW1573; 0.5% DMSO) Dmax**, SW1573 HiBit-KRas^G12C, 0.5% DMSO
[10] = SW1573, read-out: KRas^G12C-HiBit (SW1573; 0.1% DMSO) Dmax**, SW1573 HiBit-KRas^G12C, 0.1% DMSO
[11] = SW1573 HiBit-KRas^G12C, 0.1% DMSO, read-out: KRas^G12C-HIBit (SW1573; 0.1% DMSO) DC50*

T1 sequence (P01116 1-186 isoform P01116-2 G12C limits assumed): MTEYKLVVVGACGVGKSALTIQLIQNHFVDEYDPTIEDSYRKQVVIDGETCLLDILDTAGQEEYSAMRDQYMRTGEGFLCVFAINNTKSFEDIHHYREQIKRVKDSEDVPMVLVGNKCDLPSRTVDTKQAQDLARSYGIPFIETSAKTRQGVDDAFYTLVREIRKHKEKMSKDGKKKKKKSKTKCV

SMILES	Dmax [1, 3] [%]	DC50 [1, 4] [nM]	Dmax [2, 5] [%]	DC50 [2, 6] [nM]	Dmax ([1]; MIA PaCa-2, MiaPaCa-2 HiBit-KRas^G12C cells, 0.1% DMSO, read-out: KRas^G12C-HiBiT (MiaPaCa; 0.1% DMSO) DMax) [%]	Dmax ([2]; SW1573, SW1573 HiBit-KRas^G12C, 0.1% DMSO, read-out: KRas^G12C-HiBit (SW1573; 0.1% DMSO) Dmax**) [%]	Dmax [1, 7] [%]	Dmax [1, 8] [%]	Dmax [2, 9] [%]	Dmax [2, 10] [%]	DC50 [2, 11] [nM]
C=CC(=O)N1CCN(c2nc(OC[C@@H]3CCCN3CCCCOCC(=O)N[C@H](C(=O)N3C[C@H](O)C[C@H]3C(=O)N[C@@H](C)c3ccc(-c4scnc4C)cc3)C(C)(C)C)nc3c(F)c(-c4cc(O)cc5ccccc45)c(Cl)cc23)C[C@@H]1CC#N [Compound 100, (2S,4R)-1-[(2S)-2-(2-{4-[(2S)-2-[({6-chloro-4-[(3S)-3-(cyanomethyl)-4-(prop-2-enoyl)piperazin-1-yl]-8-fluoro-7-(3-hydroxynaphthalen-1-yl)quinazolin-2-yl}oxy)methyl]pyrrolidin-1-yl]butoxy}acetamido)-3,3-dimethylbutanoyl]-4-hydroxy-N-[(1S)-1-[4-(4-methyl-1,3-thiazol-5-yl)phenyl]ethyl]pyrrolidine-2-carboxamide]	< 35	> 1000	< 35	100 to 1000							
C=CC(=O)N1CCN(c2nc(O[C@H](C)CN3CC(OC4CCN(CC(=O)N[C@H](C(=O)N5C[C@H](O)C[C@H]5C(=O)N[C@@H](C)c5ccc(-c6scnc6C)cc5)C(C)(C)C)CC4)C3)nc3c(F)c(-c4cc(O)cc5ccccc45)c(Cl)cc23)CC1 [Compound 46, (2S,4R)-1-[(2S)-2-{2-[4-({1-[(2R)-2-{[6-chloro-8-fluoro-7-(3-hydroxynaphthalen-1-yl)-4-[4-(prop-2-enoyl)piperazin-1-yl]quinazolin-2-yl]oxy}propyl]azetidin-3-yl}oxy)piperidin-1-yl]acetamido}-3,3-dimethylbutanoyl]-4-hydroxy-N-[(1S)-1-[4-(4-methyl-1,3-thiazol-5-yl)phenyl]ethyl]pyrrolidine-2-carboxamide]							< 35	35 to 70	35 to 70	35 to 70	100 to 1000
C=CC(=O)N1CCN(c2nc(O[C@H](C)CN3CCC(OCC(=O)N[C@H](C(=O)N4C[C@H](O)C[C@H]4C(=O)N[C@@H](C)c4ccc(-c5scnc5C)cc4)C(C)(C)C)CC3)nc3c(F)c(-c4cc(O)cc5ccccc45)c(Cl)cc23)CC1 [Compound 43, (2S,4R)-1-[(2S)-2-[2-({1-[(2R)-2-{[6-chloro-8-fluoro-7-(3-hydroxynaphthalen-1-yl)-4-[4-(prop-2-enoyl)piperazin-1-yl]quinazolin-2-yl]oxy}propyl]piperidin-4-yl}oxy)acetamido]-3,3-dimethylbutanoyl]-4-hydroxy-N-[(1S)-1-[4-(4-methyl-1,3-thiazol-5-yl)phenyl]ethyl]pyrrolidine-2-carboxamide]	35 to 70		> 70		35 to 70	35 to 70					100 to 1000
C=CC(=O)N1CCN(c2nc(O[C@@H]3CCC[C@H]3N3CCC(COCC(=O)N[C@H](C(=O)N4C[C@H](O)C[C@H]4C(=O)N[C@@H](C)c4ccc(-c5scnc5C)cc4)C(C)(C)C)CC3)nc3c(F)c(-c4cc(O)cc5ccccc45)c(Cl)cc23)CC1 [Compound 13, (2S,4R)-1-[(2S)-2-[2-({1-[(1R,2R)-2-{[6-chloro-8-fluoro-7-(3-hydroxynaphthalen-1-yl)-4-[4-(prop-2-enoyl)piperazin-1-yl]quinazolin-2-yl]oxy}cyclopentyl]piperidin-4-yl}methoxy)acetamido]-3,3-dimethylbutanoyl]-4-hydroxy-N-[(1S)-1-[4-(4-methyl-1,3-thiazol-5-yl)phenyl]ethyl]pyrrolidine-2-carboxamide]							35 to 70	35 to 70	35 to 70	35 to 70	100 to 1000

Now from value to compound, other results behind:

Dmax [1, 3] [%]	DC50 [1, 4] [nM]	Dmax [2, 5] [%]	DC50 [2, 6] [nM]	Dmax ([1]; MIA PaCa-2, MiaPaCa-2 HiBit-KRas^G12C cells, 0.1% DMSO, read-out: KRas^G12C-HiBiT (MiaPaCa; 0.1% DMSO) DMax) [%]	Dmax ([2]; SW1573, SW1573 HiBit-KRas^G12C, 0.1% DMSO, read-out: KRas^G12C-HiBit (SW1573; 0.1% DMSO) Dmax**) [%]	SMILES	Dmax [1, 7] [%]	Dmax [1, 8] [%]	Dmax [2, 9] [%]	Dmax [2, 10] [%]	DC50 [2, 11] [nM]
> 70	100 to 1000	> 70	100 to 1000			C=CC(=O)N1CCN(c2nc(OCCN3CCC(COCC(=O)N[C@H](C(=O)N4C[C@H](O)C[C@H]4C(=O)N[C@@H](C)c4ccc(-c5ccnn5C)cc4)C(C)(C)C)CC3)nc3c(F)c(-c4cc(O)cc5ccccc45)c(Cl)cc23)C[C@@H]1CC#N (atropisomer, axis not shown) [Compound 136, (2S,4R)-1-[(2S)-2-[2-({1-[2-({6-chloro-4-[(3S)-3-(cyanomethyl)-4-(prop-2-enoyl)piperazin-1-yl]-8-fluoro-7-(3-hydroxynaphthalen-1-yl)quinazolin-2-yl}oxy)ethyl]piperidin-4-yl}methoxy)acetamido]-3,3-dimethylbutanoyl]-4-hydroxy-N-[(1S)-1-[4-(1-methyl-1H-pyrazol-5-yl)phenyl]ethyl]pyrrolidine-2-carboxamide]					
	> 1000		> 1000			C=C(F)C(=O)N1CCN(c2nc(OCCN3CCC(C)(COc4cc([C@@H](C(=O)N5C[C@H](O)C[C@H]5C(=O)N[C@@H](C)c5ccc(-c6scnc6C)cc5)C(C)C)on4)CC3)nc3c(F)c(-c4cc(O)cc5ccccc45)c(Cl)cc23)C[C@@H]1CC#N (atropisomer, axis not shown) [Compound 126, (2S,4R)-1-[(2S)-2-[3-({1-[2-({6-chloro-4-[(3S)-3-(cyanomethyl)-4-(2-fluoroprop-2-enoyl)piperazin-1-yl]-8-fluoro-7-(3-hydroxynaphthalen-1-yl)quinazolin-2-yl}oxy)ethyl]-4-methylpiperidin-4-yl}methoxy)-1,2-oxazol-5-yl]-3-methylbutanoyl]-4-hydroxy-N-[(1S)-1-[4-(4-methyl-1,3-thiazol-5-yl)phenyl]ethyl]pyrrolidine-2-carboxamide]					
